From patent US7078566B2, “Salts of guanidine derivatives and pharmaceutical preparations consisting thereof” (Biosphinks Aktiengesellschaft, priority 2001, dated 2006)

Key:
[1] = target: neutral sphingomyelinase from Bacillus cereus (Bacillus cereus, UniProt P11889); assay: biochemical; conditions: pH 7.2, 37° C., 24 h
Description: Paranitrophenylphosphoryl-choline was dissolved to a final concentration of 1 mg/ml in 0.1 M Tris at pH 7.2 and 10 mM […]. […] The optical density is a measure for the quantity of cleaved substrate. Dose-effect curves were used to determine the concentration at which the enzyme activity is inhibited by 50% (IC50).

[2] = Solubility of C11AG salts in water
[3] = system: nude mice (strain: Swiss, Nu/Nu); assay: Physiological tolerability after subcutaneous application (tissue damage after 24 h)
Description: Aliquots of 0.1 ml each were administered to 3 nude mice (strain: Swiss, Nu/Nu) by subcutaneous application. After 24 h, the degree of tissue damage was recorded. The results are shown in Table 4, in which no visible damage=−, reddening=+, edemas=++, and necroses=+++.

[4] = Solubility of C11AG salts in potassium phosphate buffer (crystal formation by microscope); conditions: for Crystals: pH 7.4, 4 mM C11AG salt
DSS induced colitis = assay: DSS induced colitis, body weight loss; type: in vivo, mice (strain Balb C); conditions: in food equimolar to 0.5 mg C11AG/g
From the text: (§1) Female mice (strain Balb C, 9 weeks old) were obtained from Charles River and were kept under specific pathogen free conditions under an artificial day/night rhythm. Animals were fed with Altromin standard diet and received water ad libitum. Colitis was induced by addition of dextran sulfate (DSS) (MW 36,000–50,000, ICN, Aurora, Ohio, lot 2387F) to drinking water at a concentration of 7.5%. For C11AG treatment the free base of C11AG (lot 2-3-3) was used. Animals received Altromin powder food, mixed with 0.5 mg C11AG/g or with equimolar concentration of C11AG salt (i.e. 0.785 mg/g C11AG hexanate). As determined in calibration experiments Balb C mice (8–12 weeks old) consume each day 150 g food/kg body weight. The corresponding daily doses of C11AG were therefore: 75 and […]. Body weight loss is one of the most evident symptoms of DSS induced colitis. Mean body weight was determined every day for each group and the weight loss was calculated.
as §1, with “libitum.Colitis” for “libitum. Colitis”, “Animals received Altromin powder food, mixed with 0.5 mg C11AG/g or with equimolar concentration of C11AG salt (i.e. 0.785 mg/g C11AG hexanate).” left out, “calculated. Mean weight loss was added over a period of eleven days.” for “calculated.”

[5] = paranitrophenylphosphoryl-choline substrate
[6] = IC50, paranitrophenylphosphoryl-choline substrate
[7] = Example 10, mean weight loss added over eleven days, FIG. 3

Chain of neutral sphingomyelinase from Bacillus cereus (P11889 28-333): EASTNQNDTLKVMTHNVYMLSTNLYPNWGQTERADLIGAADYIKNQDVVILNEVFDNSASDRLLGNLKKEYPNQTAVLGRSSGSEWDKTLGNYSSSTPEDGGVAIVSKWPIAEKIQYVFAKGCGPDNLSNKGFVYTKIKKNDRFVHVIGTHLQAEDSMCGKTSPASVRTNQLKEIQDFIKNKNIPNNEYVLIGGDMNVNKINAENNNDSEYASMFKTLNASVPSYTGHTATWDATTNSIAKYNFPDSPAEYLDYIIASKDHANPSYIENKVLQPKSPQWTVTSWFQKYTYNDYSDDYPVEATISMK

Compound	IC50 [1, 5]	Solubility in water [2]	Crystals ([4]; phosphate 1 mM–1,000 mM)	Protection from DSS induced weight loss as compared to the free base (DSS induced colitis; [7])	also measured
CC(=O)O.CCCCCCCCCCC=NNC(=N)N [Acetate, undecylideneaminoguanidine acetate]	0.85 µg/mL	>10000 µg/mL			concentration up to which well-tolerated / no damage ([3]; 0.1 ml subcutaneous, nude mice, after 24 h): 20000 µM; Crystals ([4]; phosphate 1 mM): no; Crystals ([4]; phosphate 10 mM–1,000 mM): yes; phosphate concentration at which the salt precipitates (forms insoluble phosphates) ([4]; potassium phosphate buffer pH 7.4, 4 mM C11AG salt): 10 mM
CCCCCCCCCCC=NNC(=N)N [Chloride, reference compound]			yes		IC50 [1, 6]: 3.53 µM; solubility ([2]; water): > 10000 µg/mL; lowest concentration leading to reddening and edemas ([3]; Swiss Nu/Nu (nude), mouse, in vivo, sc, 24 h): 20 mM
CC(O)C(=O)O.CCCCCCCCCCC=NNC(=N)N [Lactate, undecylideneaminoguanidine lactate]	0.9 µg/mL				Crystals ([4]; phosphate 1 mM): no; Crystals ([4]; phosphate 10 mM–1,000 mM): yes
CCCCCCCCCCC=NNC(=N)N [Oenanthate, undecylideneaminoguanidine oenanthate]		>10000 µg/mL	no		IC50 [1, 6]: 3.31 µM
Dodecylphosphonate		100 µg/mL			
Undecylenate		100 µg/mL			
undecylideneaminoguanidine decanoate [Decanate]				more pronounced	
undecylideneaminoguanidine hexanoate [hexanoic acid salt of C11AG]				more pronounced	Protection from DSS induced weight loss as compared to the free base (DSS induced colitis; Example 9, mean weight loss per day, FIG. 2): more pronounced
undecylideneaminoguanidine octanoate [octanoic acid salt of C11AG]				more pronounced	
undecylideneaminoguanidine pelargonate	0.95 µg/mL	>10000 µg/mL	no		
